Measurements as given in PMC10714390, “Quinoline Compounds Targeting the c-Ring of ATP Synthase Inhibit Drug-Resistant Pseudomonas aeruginosa” (ACS Infectious Diseases, 2023).

What was measured:
[1] = test system: E. coli (ATCC 25922); assay: Antimicrobial susceptibility (broth microdilution), EC 25922; format: cell-based, Escherichia coli; conditions: for MIC: Escherichia coli, ATCC25922, read-out: antibacterial activity (MIC) EC 25922; for antibacterial activity in words, EC 25922: summary of Table 1
Description: The following are general steps, unless otherwise noted. All steps were completed using aseptic techniques. All media and glassware were sterilized via an autoclave at 121 °C for 60 min. All agitation occurred at 160 rpm in a temperature-controlled console shaker (Excella E25) at 37 °C. Full-strength tryptic soy broth (TSB) was made by dissolving 30 g of BD Bacto TSB powder in 1 L of deionized water. Purchased and acquired bacterial strains used were E. coli (ATCC 25922), P. aeruginosa (ATCC 9027), drug-resistant P. aeruginosa from ATCC Panel MP-23 (BAA 2108, BAA 2109, BAA 2110), and P. aeruginosa efflux knockout GKCW120 (PΔ6)[6] provided by Zgurskaya and co-workers at the University of Oklahoma.
Susceptibility testing was performed in biological triplicate using the broth microdilution method as outlined by the Clinical and Laboratory Standards Institute. […] Briefly, to each well, 1 μL of compound in DMSO, 89 μL of TSB, and 10 μL of bacterial inoculum, grown from a single colony in 10 mL of TSB for 4–6 h, were added. After incubation for 12–15 h at 37 °C, absorbance at 590 nm was read on a Biotek Synergy HTX Multimode plate reader. Data were processed by background subtracting the media absorbance and then normalizing the data to full bacterial growth with the vehicle only. MIC is defined as the lowest concentration of antibiotic or antibiotic/adjuvant combination that achieves ≥85% growth inhibition, which corresponds to no visible growth.
Initial antibacterial activity screen of compounds 4, 5, and S1-S6
Compounds 4, 5, and S1-S6 were screened for initial antibiotic activity against a susceptible laboratory strain of EC (designated EC 25922), and non-virulent, biofilm forming strain of PA (designated PA 9027), and PD6 (efflux knockout strain6) at 128 µg/mL in DMSO. Sterilization and Antimicrobial Susceptibility Assay procedures utilized were the same as described in the methods.
Table S1. Antibacterial activity screening results for compounds 4, 5, and S1-S6 at 128 µg/mL
Table S1. Antibacterial activity screening results for compounds 4, 5, and S1-S6 at 128 µg/mL.

[2] = biological target: luciferase (Photinus pyralis, UniProt P08659); assay: Inhibition of luciferase by quinoline compounds; format: biochemical; conditions: after 500-fold dilution; Figure S4
Sequence of luciferase (P08659 whole entry): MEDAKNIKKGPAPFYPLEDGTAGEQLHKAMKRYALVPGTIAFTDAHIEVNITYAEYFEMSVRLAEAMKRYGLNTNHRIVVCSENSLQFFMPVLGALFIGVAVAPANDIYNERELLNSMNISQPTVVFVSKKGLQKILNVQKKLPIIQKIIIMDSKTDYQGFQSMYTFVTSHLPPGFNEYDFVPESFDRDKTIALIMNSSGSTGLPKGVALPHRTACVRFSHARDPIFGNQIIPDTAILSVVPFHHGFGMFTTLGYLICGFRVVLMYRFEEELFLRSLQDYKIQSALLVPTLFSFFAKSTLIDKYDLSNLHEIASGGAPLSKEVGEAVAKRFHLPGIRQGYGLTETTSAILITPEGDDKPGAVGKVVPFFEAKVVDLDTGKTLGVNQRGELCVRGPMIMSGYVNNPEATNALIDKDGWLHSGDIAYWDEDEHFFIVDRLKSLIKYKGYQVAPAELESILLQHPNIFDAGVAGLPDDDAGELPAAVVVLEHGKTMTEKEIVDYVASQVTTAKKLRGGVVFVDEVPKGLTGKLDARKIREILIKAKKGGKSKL
Description: Continuous ATP synthesis activity of inverted membrane vesicles was measured using a luciferin/luciferase luminescence assay as previously described.[22] Inhibition of ATP synthesis activity by test compounds was determined using an end point assay essentially as previously described.[18],[26] In this assay, the synthesis reaction was initiated by 2.5 mM NADH, proceeded for 10 min, and was stopped with 1% trichloroacetic acid, 2 mM CCCP, and 10 mM EDTA. Samples from each reaction were diluted 500-fold prior to the addition of luciferase since quinoline compounds are known to inhibit luciferase.[27] This dilution was sufficient to minimize inhibition of luciferase (Figure S4). Each replicate set included a positive control containing DMSO with no compound and a negative control containing carbonyl cyanide m-chlorophenyl hydrazone. Luminescence values were corrected for the background by subtracting the negative control and then normalized to the positive control within the same replicate. Dose–response curves were fit using eq 1, where activity is the relative ATP synthesis activity, [I] is the concentration of inhibitor in μg/mL, and n is the Hill coefficient. [drawing 1] 1
Table S2: All IC50 values and Hill coefficients for dose response fits of inhibition of ATP synthesis activity. […]
luciferase) at the indicated concentrations, and luminescence was measured after the addition of ATP to […]

Structure (SMILES)	MIC [1] [µg/mL]	Antibacterial activity screening result, EC 25922 ([1]; at 128 µg/mL in DMSO)	antibacterial activity in words, EC 25922 [1]	inhibition of luciferase, in words [2]
CN(C)Cc1ccc(CNCc2cc3ccccc3nc2SCc2ccccc2)cc1 [Compound 5, 1-(4-((((2-(Benzylthio)quinolin-3-yl)methyl)amino)methyl)phenyl)-N,N-dimethylmethanamine]	64	I	more potent	did not significantly inhibit
CSc1nc2ccccc2cc1CNCc1ccc(CN(C)C)cc1 [Compound 4, N,N-Dimethyl-1-(4-((((2-(methylthio)quinolin-3-yl)methyl)amino)methyl)phenyl)methanamine]	256		weakly inhibit	did not significantly inhibit
